This note sets out measurements from ChEMBL document CHEMBL3991601, “The target landscape of clinical kinase drugs” (Science, 2017).

What is called Kd is the equilibrium constant for the complex coming apart.

Active and inactive are the calls of the source. Rule as the data show it, for most assays here: actives have a measured Kd and inactives only a lower limit. Where only a bound is given, the exact number is not on record here.

For assay [1], the target named is T1, Serine/threonine-protein kinase Nek2 (Homo sapiens, UniProt P51955).
T1 sequence (P51955 whole entry): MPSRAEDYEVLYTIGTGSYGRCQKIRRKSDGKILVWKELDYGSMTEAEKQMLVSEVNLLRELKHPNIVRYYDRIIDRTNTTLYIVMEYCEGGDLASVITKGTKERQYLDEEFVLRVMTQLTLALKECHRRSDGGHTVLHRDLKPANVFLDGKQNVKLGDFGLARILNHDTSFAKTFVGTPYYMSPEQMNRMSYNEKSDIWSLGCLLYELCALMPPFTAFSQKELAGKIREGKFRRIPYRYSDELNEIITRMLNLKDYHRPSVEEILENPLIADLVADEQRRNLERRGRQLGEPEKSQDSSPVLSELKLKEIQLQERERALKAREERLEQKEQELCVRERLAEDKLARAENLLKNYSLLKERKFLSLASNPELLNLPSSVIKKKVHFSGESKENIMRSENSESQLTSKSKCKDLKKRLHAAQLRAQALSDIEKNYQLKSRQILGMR

Assay [2] addresses Tyrosine-protein kinase HCK (Homo sapiens, UniProt P08631).
Assay [3] deals with T2, EKC/KEOPS complex subunit TP53RK (Homo sapiens, UniProt Q96S44).
T2 sequence (Q96S44 whole entry): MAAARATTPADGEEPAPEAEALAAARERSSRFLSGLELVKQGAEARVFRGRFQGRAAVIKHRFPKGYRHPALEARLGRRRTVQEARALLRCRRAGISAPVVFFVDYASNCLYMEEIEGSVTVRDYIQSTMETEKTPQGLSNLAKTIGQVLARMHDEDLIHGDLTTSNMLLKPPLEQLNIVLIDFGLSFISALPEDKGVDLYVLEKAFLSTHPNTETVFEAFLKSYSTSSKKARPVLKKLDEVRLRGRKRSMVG

Assay [4] has as its target RAC-gamma serine/threonine-protein kinase (Homo sapiens, UniProt Q9Y243).
Assay [5] deals with NADH dehydrogenase [ubiquinone] 1 alpha subcomplex subunit 13 (Homo sapiens, UniProt Q9P0J0).
The target of assay [6] is Putative heat shock protein HSP 90-beta 2 (Homo sapiens, UniProt Q58FF8).
The next assay deals with T3, Ephrin type-B receptor 4 (Homo sapiens, UniProt P54760).
T3 sequence (P54760 whole entry): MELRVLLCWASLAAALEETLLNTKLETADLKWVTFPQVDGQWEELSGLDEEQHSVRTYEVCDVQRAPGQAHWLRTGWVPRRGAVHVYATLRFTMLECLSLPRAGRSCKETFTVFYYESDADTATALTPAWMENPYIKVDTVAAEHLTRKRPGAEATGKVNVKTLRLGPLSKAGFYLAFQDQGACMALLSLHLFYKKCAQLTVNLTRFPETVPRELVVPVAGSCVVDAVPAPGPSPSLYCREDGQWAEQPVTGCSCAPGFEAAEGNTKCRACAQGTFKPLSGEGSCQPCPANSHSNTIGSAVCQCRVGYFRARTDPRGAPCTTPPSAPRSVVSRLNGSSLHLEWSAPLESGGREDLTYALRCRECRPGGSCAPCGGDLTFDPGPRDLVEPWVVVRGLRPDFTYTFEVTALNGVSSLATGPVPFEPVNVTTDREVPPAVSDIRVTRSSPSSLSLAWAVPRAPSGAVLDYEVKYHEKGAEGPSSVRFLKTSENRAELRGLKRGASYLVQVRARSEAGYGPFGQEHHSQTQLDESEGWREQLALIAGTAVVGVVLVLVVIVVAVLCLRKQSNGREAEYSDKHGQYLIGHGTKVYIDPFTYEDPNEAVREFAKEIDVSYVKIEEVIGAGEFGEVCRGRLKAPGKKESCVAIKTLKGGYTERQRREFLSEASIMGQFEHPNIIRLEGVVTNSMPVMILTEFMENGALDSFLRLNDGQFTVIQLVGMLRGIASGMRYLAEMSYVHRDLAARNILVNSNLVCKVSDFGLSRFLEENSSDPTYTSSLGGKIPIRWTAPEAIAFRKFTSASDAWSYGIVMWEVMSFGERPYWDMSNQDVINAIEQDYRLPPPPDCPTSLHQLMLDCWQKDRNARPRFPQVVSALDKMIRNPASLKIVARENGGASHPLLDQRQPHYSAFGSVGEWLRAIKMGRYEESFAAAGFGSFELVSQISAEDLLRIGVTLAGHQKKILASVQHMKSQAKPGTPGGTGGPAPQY

The target in assay [7] is T4, Ferrochelatase, mitochondrial (Homo sapiens, UniProt P22830).
T4 sequence (P22830 whole entry): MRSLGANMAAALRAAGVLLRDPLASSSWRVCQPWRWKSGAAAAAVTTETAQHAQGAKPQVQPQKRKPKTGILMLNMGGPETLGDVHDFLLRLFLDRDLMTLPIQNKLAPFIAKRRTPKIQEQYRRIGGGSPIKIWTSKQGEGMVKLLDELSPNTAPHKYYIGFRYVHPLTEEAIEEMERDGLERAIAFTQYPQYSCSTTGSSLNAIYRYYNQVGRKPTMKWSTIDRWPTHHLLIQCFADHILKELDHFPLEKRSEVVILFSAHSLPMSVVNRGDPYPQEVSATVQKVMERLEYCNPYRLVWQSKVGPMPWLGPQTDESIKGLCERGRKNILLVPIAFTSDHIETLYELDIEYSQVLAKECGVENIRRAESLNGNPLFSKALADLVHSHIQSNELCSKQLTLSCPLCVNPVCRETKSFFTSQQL

Assay [8] deals with Eukaryotic translation initiation factor 2-alpha kinase 1 (Homo sapiens, UniProt Q9BQI3).
The target in assay [9] is Structural maintenance of chromosomes protein 2 (Homo sapiens, UniProt O95347).
Assay [10] has as its target Ribosomal protein S6 kinase alpha-5 (Homo sapiens, UniProt O75582).
Assay [11] has as its target Mitogen-activated protein kinase 3 (Homo sapiens, UniProt P27361).
Assay [12] deals with Tyrosine-protein kinase BTK (Homo sapiens, UniProt Q06187).
Also: in the data inactive means no Kd found up to 30 µM.

Sequence of Tyrosine-protein kinase HCK (P08631 whole entry): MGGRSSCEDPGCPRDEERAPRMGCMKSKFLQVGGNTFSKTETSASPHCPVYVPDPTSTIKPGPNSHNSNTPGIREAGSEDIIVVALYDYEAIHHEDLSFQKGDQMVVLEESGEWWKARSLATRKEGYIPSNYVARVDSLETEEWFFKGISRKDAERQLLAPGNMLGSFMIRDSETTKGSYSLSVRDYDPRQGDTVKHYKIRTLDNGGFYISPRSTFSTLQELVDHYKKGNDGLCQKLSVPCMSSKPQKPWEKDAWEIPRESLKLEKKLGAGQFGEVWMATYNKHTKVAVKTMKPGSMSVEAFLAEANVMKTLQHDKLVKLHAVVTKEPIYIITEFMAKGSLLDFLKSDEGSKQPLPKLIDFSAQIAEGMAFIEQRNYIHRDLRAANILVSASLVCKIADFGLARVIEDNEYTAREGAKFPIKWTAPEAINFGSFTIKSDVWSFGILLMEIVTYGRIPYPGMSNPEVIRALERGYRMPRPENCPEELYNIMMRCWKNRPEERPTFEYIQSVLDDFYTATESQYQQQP
Sequence of Structural maintenance of chromosomes protein 2 (O95347 whole entry): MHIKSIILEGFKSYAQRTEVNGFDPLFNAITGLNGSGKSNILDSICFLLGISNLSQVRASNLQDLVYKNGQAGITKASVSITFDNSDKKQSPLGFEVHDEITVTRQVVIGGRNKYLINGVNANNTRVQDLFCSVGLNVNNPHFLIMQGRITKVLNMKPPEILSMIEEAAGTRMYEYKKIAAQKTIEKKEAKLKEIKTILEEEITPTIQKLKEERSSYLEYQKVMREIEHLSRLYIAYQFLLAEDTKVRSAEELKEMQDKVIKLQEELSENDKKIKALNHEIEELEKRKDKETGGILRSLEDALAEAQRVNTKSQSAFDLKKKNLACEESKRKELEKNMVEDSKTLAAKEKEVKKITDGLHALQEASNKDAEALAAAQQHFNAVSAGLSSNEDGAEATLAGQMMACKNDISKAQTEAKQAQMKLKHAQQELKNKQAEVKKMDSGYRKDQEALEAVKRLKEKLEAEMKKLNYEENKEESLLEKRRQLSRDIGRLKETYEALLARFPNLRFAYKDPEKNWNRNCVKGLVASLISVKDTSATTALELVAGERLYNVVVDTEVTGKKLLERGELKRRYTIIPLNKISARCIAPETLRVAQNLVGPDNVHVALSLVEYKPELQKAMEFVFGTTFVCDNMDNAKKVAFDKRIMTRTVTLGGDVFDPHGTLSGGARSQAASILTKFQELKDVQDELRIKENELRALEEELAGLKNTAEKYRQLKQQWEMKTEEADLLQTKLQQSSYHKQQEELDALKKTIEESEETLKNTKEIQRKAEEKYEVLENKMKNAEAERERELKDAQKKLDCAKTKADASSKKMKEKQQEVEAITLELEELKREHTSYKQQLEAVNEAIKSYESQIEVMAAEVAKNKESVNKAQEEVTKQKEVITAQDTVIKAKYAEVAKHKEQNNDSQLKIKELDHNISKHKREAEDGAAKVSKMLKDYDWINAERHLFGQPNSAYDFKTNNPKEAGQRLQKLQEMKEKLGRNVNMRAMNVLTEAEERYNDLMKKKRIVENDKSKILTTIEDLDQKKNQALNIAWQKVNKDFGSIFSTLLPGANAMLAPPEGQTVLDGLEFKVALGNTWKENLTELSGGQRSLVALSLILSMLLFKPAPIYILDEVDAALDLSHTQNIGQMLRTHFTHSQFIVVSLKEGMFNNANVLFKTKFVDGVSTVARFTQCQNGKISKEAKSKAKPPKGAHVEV
Sequence of Ribosomal protein S6 kinase alpha-5 (O75582 whole entry): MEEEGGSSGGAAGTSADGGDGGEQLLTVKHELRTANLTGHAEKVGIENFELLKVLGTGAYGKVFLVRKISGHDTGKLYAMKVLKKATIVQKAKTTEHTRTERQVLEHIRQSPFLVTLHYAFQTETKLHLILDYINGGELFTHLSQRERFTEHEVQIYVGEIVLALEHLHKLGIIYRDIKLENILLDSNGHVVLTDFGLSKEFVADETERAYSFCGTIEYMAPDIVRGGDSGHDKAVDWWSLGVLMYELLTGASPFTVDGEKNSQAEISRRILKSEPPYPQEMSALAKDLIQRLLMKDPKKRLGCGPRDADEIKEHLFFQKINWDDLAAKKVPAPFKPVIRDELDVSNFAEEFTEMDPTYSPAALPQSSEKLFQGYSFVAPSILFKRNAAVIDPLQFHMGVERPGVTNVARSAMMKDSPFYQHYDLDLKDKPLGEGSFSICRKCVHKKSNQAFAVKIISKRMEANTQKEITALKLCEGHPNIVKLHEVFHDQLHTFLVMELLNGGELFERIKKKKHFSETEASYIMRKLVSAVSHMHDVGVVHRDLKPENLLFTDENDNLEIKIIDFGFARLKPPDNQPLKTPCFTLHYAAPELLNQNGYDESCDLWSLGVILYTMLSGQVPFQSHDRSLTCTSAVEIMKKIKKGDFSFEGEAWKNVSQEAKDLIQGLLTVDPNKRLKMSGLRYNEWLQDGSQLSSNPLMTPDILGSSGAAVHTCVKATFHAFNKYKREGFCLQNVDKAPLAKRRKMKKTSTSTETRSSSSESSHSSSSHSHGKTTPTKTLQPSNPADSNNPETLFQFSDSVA
Sequence of Eukaryotic translation initiation factor 2-alpha kinase 1 (Q9BQI3 whole entry): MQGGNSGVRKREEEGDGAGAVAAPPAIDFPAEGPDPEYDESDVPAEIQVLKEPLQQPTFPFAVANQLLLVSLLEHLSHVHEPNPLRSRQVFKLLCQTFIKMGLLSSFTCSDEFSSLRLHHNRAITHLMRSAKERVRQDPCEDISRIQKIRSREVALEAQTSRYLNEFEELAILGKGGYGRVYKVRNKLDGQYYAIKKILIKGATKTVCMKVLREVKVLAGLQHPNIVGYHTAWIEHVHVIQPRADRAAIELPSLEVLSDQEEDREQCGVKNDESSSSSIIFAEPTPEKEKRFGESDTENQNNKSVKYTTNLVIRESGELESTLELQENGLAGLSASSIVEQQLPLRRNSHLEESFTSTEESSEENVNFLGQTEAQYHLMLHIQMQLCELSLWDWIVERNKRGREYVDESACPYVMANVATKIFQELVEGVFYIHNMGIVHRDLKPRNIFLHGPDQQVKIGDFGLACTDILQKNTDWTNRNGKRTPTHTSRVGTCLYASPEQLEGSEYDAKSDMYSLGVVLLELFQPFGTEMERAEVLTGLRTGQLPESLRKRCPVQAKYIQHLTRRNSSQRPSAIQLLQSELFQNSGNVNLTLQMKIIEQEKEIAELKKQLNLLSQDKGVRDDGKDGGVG
Sequence of Tyrosine-protein kinase BTK (Q06187 whole entry): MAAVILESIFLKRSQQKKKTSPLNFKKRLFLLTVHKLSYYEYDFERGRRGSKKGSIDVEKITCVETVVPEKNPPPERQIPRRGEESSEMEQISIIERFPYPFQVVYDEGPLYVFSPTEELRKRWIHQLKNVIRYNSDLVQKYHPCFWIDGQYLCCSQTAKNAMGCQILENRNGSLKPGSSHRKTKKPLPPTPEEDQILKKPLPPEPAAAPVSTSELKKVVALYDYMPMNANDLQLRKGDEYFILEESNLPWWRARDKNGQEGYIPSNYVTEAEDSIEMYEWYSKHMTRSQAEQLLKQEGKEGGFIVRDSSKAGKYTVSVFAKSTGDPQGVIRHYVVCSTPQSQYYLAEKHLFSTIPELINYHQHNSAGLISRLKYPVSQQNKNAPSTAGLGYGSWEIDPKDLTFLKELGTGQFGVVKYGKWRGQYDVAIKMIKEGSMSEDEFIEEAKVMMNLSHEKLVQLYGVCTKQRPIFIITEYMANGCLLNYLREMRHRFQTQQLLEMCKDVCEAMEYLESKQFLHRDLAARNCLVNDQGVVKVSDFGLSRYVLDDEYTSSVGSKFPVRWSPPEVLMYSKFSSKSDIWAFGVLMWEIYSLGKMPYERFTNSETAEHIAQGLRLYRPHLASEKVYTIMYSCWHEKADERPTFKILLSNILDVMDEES
Sequence of Putative heat shock protein HSP 90-beta 2 (Q58FF8 whole entry): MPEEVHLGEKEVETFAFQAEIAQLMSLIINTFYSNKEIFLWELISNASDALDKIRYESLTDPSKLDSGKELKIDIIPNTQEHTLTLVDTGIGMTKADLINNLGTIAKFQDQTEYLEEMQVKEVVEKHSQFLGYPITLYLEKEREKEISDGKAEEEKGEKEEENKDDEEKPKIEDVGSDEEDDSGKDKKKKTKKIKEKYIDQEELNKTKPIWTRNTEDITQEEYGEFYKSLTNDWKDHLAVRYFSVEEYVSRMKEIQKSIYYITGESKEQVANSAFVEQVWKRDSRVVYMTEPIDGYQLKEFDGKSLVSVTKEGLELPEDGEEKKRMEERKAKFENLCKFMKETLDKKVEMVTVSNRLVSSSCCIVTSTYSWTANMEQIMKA
Sequence of RAC-gamma serine/threonine-protein kinase (Q9Y243 whole entry): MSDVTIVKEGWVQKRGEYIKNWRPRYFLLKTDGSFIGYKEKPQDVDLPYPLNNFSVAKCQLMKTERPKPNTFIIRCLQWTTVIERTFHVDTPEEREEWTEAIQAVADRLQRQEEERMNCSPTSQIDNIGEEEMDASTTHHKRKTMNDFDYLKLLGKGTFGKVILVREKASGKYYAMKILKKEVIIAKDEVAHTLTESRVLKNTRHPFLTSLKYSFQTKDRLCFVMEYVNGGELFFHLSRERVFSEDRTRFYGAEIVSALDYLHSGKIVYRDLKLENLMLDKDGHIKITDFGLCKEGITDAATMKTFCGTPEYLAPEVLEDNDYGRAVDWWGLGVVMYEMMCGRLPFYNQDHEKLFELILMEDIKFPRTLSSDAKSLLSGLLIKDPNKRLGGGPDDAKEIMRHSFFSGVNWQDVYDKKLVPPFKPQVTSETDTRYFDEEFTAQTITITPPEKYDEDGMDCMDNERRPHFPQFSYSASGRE
Sequence of NADH dehydrogenase [ubiquinone] 1 alpha subcomplex subunit 13 (Q9P0J0 whole entry, one chain of several): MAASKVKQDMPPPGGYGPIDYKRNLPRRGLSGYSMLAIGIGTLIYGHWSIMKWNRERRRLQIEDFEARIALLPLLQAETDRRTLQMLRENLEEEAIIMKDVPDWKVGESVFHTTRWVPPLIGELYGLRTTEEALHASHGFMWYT

In the case of `C=CC(=O)Nc1cccc(Nc2nc(Nc3ccc(N4CCN(C(C)=O)CC4)cc3OC)ncc2C(F)(F)F)c1` [ROCILETINIB], the Kd in [1], in assay [2], in assay [3], in assay [4], in assay [5] and in assay [6] was > 30 µM (inactive) each time. The Kd (at Ephrin type-B receptor 4; in [7]; in assay [8]; in assay [9]; in assay [10]; in assay [11]) was > 30 µM (inactive) throughout. In addition, the Kd in assay [12] is 0.547 µM (active).
For the compound `O=c1[nH]c([C@@H]2CCCN2)nc2c1oc1ccc(Cl)cc12`, the Kd in assay [1], in assay [2], in [3], in assay [4], in [5] and in assay [6] was > 30 µM (inactive) in each case. The Kd (on Ephrin type-B receptor 4; in [7]; in assay [8]; in [9]; in assay [10]; in [11]) was > 30 µM (inactive) throughout. Also, the Kd in [12] was > 30 µM (inactive).
For the compound `Cc1c(Cn2c(C)nc3c(C(=O)O)cc(N4CCOCC4)cc32)cccc1C(F)(F)F` [GSK-2636771], the Kd in assay [1], in [2], in assay [3], in assay [4], in [5] and in assay [6] was > 30 µM (inactive) each time. In addition, the Kd (at Ephrin type-B receptor 4; in assay [7]; in assay [8]; in [9]; in assay [10]; in assay [11]) was > 30 µM (inactive) in each case. The Kd in [12] was > 30 µM (inactive).
As to `COc1cc2ncnc(Nc3ccc(O)cc3)c2cc1OC` [WHI-P131], the Kd in assay [1], in assay [2], in assay [3], in assay [4], in [5] and in assay [6] was > 30 µM (inactive) in each case. For the same compound, the Kd (at Ephrin type-B receptor 4; in [7]; in assay [8]; in [9]; in assay [10]; in assay [11]) was > 30 µM (inactive) each time. Besides, in assay [12], the Kd was > 30 µM (inactive).
Consider `C=CC(=O)Nc1cc(Nc2nccc(-c3cn(C)c4ccccc34)n2)c(OC)cc1N(C)CCN(C)C` [OSIMERTINIB], for which the Kd in [1], in [2], in [3], in assay [4], in [5] and in assay [6] was > 30 µM (inactive) throughout. For the same compound, the Kd (on Ephrin type-B receptor 4; in assay [7]; in [8]; in [9]; in assay [10]; in assay [11]) was > 30 µM (inactive) in each case. In assay [12], the Kd was 0.525 µM (active).
Take `Cn1cc(-c2[nH]c3cc(NC(=O)[C@H](N)C4CCCCC4)cc4c3c2C=NNC4=O)cn1`: the Kd is > 30 µM (inactive) in assay [1]; 0.436 µM (active) in assay [2]; > 30 µM (inactive) in [3]; > 30 µM (inactive) in assay [4]; > 30 µM (inactive) in assay [5]; > 30 µM (inactive) in assay [6]. Also, the Kd on Ephrin type-B receptor 4 was > 30 µM (inactive); in assay [7], > 30 µM (inactive); in assay [8], > 30 µM (inactive); in [9], > 30 µM (inactive); in assay [10], > 30 µM (inactive); in assay [11], 3.21 µM (active). Further, in assay [12], the Kd was 2.84 µM (active).
On to `COCCN1CCN(Cc2ccc(-c3n[nH]c4c3C(=O)c3c(NC(=O)NN5CCOCC5)cccc3-4)cc2)CC1` [RGB-286638], for which the Kd is > 30 µM (inactive) in assay [1]; > 30 µM (inactive) in [2]; 1.72 µM (active) in assay [3]; > 30 µM (inactive) in assay [4]; > 30 µM (inactive) in [5]; > 30 µM (inactive) in [6]. Further, the Kd at Ephrin type-B receptor 4 was > 30 µM (inactive); in assay [7] it was > 30 µM (inactive); in assay [8], 3.8 µM (active); in assay [9], > 30 µM (inactive); in [10] it was > 30 µM (inactive); in [11], > 30 µM (inactive). The Kd in assay [12] is > 30 µM (inactive).
With `CC(C)(O)CC(=O)NCCn1ccc2ncnc(Nc3ccc(Oc4cccc(C(F)(F)F)c4)c(Cl)c3)c21` [TAK-285], the Kd in assay [1], in assay [2], in assay [3], in [4], in assay [5] and in assay [6] was > 30 µM (inactive) throughout. In addition, the Kd (on Ephrin type-B receptor 4; in assay [7]; in assay [8]; in [9]; in [10]; in [11]) was > 30 µM (inactive) each time. In assay [12], the Kd is > 30 µM (inactive).
On to `C[C@@H]1COC(Nc2ccc3ncnc(Nc4ccc(OCc5nccs5)c(Cl)c4)c3c2)=N1` [VARLITINIB], for which the Kd in assay [1], in [2], in [3], in assay [4], in [5] and in [6] was > 30 µM (inactive) in each case. Besides, the Kd at Ephrin type-B receptor 4 is > 30 µM (inactive); in [7] it was 76.4 µM; in assay [8], > 30 µM (inactive); in [9] it was > 30 µM (inactive); in assay [10], > 30 µM (inactive); in [11], > 30 µM (inactive). The Kd in assay [12] was > 30 µM (inactive).
